Measurements taken from patent US11224582B2, “Amino acid formulations for pancreatic viability” (Almeda Labs LLC, priority 2017, dated 2022).
Entries after “also recorded” stand apart in the source; their conditions may differ.

Assays:
[1] = test system: rat islets; assay: Dithizone staining / light microscopy of rat islets; format: cell-based; conditions: day 1
Description: Islets were exposed to a single dose of Amino Acid Formulation #1 or cysteine for 11 days. FIG. 1 illustrates images of islets from each condition on day 1, stained with dithizone, which identifies islet cells via dark red color.
In the control media, the same was found.

[2] = test system: rat islets; assay: Viability assay of rat islets (Yo-Pro / propidium iodide staining); format: cell-based; conditions: for Apoptotic Cells (%) / Live Cells (%) / Necrotic Cells (%): 1 g/L in RPMI, 11.6 mM glucose
Procedure: During the long-term (11 day) exposure, the islets were administered Amino Acid Formulation #1 or cysteine (at the same concentration) or culture media with no added amino acids.
Isolated rat islets were cultured in 100 cm^2 cell culture plates (untreated) in 20 ml of Roswell Park Memorial Institute (RPMI) media. […] Islets were removed from the dish and placed in 50 ml tubes. Islets were allowed time to settle to the bottom of the tube. The excess media was removed, and the islets were moved to microcentrifuge tubes, and DPBS solution was added to each tube. Cells were washed and fresh DPBS added.
Islets had media changed every 2 days with continuous exposure to Amino Acid Formulation #1, Cysteine alone, or media alone. Amino Acid Formulation #1 was prepared in the lab using amino acid capsules: […]
The working solutions contained 1 g/1 L concentration of Amino Acid Formulation #1 or cysteine alone prepared in RPMI.
25-50 islets were removed from the dishes and placed in 50 ml tubes. Islets were allowed time to settle to the bottom of the tube. The excess media was removed, and the islets were moved to microcentrifuge tubes, and DPBS solution was added to each tube. Cells were washed and fresh DPBS added. Propidium iodide and yo-pro were added to the tubes at a ratio of 1 μl reagent to 1 ml cells in DPBS.
Individual wells of 96-well plates were manually loaded with 10-15 islets each and checked visually under a microscope for consistency between wells. 30 minutes later, the plates were loaded into the BioTeck plate reader with readings for Yo-Pro and Propidium iodide with additional verification of islet tissue using dithizone staining.
Results were saved as images for later cellular analysis.
All islets identified in each condition were scored for the percent area of apoptotic and necrotic cells. The remaining percentage was calculated as live cells.

[3] = test system: human beta-cell line (INS-1 832/13); assay: Viability assay (PrestoBlue) of beta-cell line with single amino acids, double crosses and blends, Example 4; conditions: for effect of single amino acid on cell viability: 5-hour exposure in PBS; for effect on cell viability in single / double crosses: each amino acid at 1 mg/mL; for effect on cell viability at the highest doses / higher concentrations: single amino acids
Procedure: The human beta-cell line (INS-1 832/13) was expanded and maintained in RPMI-1640 growth media during expansion. Cells were grown and sustained in T75 cell culture flasks in an incubator at 37° C. and 5% CO2. Cells were passaged every 4th day via trypsinization. All cell media changes and passage work was done under a biosafety hood to ensure sterility of the cultures. Readings were obtained from the EnSpire Multimode Plate Reader (Perkin Elmer) with excitation of 560 nm and emission of 590 nm. To avoid plate edge effects the outer wells of each plate were used as blanks.
The INS-1 832/13 cell line, a derivation of the INS-1 cell line, was cultured in a growth medium consisting of RPMI-1640, along with 1 M HEPES buffer solution, 50×INS supplement (glutamine, Na-pyruvate, and B-mercaptoethanol), Antibiotic-Antimycotic (Gibco by LifeTechnologies), and Fetal Bovine Serum (HyClone). Cells were grown and sustained in a T75 cell culture flask. The cells were placed in a humidified incubator at 37° C. and 5% CO2. Due to the rapid growth of these cells, media was changed on every second day and passaged on every fourth day via trypsinization. When cells were confluent, they were exposed to amino acids as described below.
Pilot studies were undertaken with 6 single amino acids to determine the optimal conditions for cell testing, and the optimal time for exposure to the amino acids. […] Thus, a second trial was undertaken removing the media and placing cells in phosphate buffered saline at the time of the amino acid addition. […] Thus, the optimal conditions were determined to be a 5-hour exposure to the amino acids in PBS.
For the full study, cells plated in 384-well plates were exposed to individual amino acids at 10 full-log doses for 4 hours at 37° C. and 5% CO2. PrestoBlue (10%) was added to each well using the Hamilton Star Automated Fluid Handling System, and 1 hour later, for a total of 5 hours of exposure to the amino acids.
The plates were loaded into the EnSpire plate reader with excitation of 560 nm and emission of 590 nm excitation wavelengths.
Amino acids were added to a minimal buffer in full log concentrations starting at 1E−08 through 10 mg/mL. […] In the graph, the data have been normalized to cell viability in minimal buffer with no amino acids (100%).
Thus, a concentration of 1 mg/mL of a single amino acid is actually a 5 mg/mL of the full blend, because there are 5 different amino acids in each blend mixed in equal amounts.

[4] = Dissolution of test articles in RPMI working solutions; format: physicochemical; conditions: 1 g/1 L in RPMI, after 24 hours at 37° C.
Procedure: The working solutions contained 1 g/1 L concentration of Amino Acid Formulation #1 or cysteine alone prepared in RPMI. […] The working medium was kept at 37° C. in incubator with islets.

[5] = test system: rat islets; assay: Islet survival (number of islets over time in culture); format: cell-based
Description: The objective of the experiment was to test the effect of long-term exposure of rat islets to Amino Acid Formulation #1 and compare those results to the currently-marketed amino acid, cysteine. A group without added amino acids was used as a control group. The comparison was based on the number of dead cells within islets over time, a count of the number of islets surviving over time, and the functional test of cellular metabolism after long-term exposure.
Rat islets were isolated from the pancreata of female animals under approved protocol and SOPs. […] The imaging capabilities of the Cytation plate reader was utilized for survival values.
All groups began with the same number of total islets per group.

For N[C@@H](CS)C(=O)O [Cysteine, L-Cysteine], the “islets with core cell death” value [1] was “approximately 30%”, the “route of cell death (apoptosis / necrosis)” value [2] was “both apoptosis and necrosis” and the “cell death (Yo-Pro and Propidium Iodide staining)” value ([2]; 24 hours exposure, compared with control and Formulation #1) was “greater than the other 2”. The “Apoptotic Cells (%)” value ([2]; Day 1) was 18.2 + 21.3%, the “Live Cells (%)” value ([2]; Day 1) was 58.4 ± 33.4 % and the “Necrotic Cells (%)” value ([2]; Day 1) was 23.4 ± 20.4%. The “Apoptotic Cells (%)” value ([2]; Day 4) was 47.1 ± 35.9%, the “Live Cells (%)” value ([2]; Day 4) was 42.0 ± 39.8 % and the “Necrotic Cells (%)” value ([2]; Day 4) was 10.9 + 13.4%. For the same compound, the “viability compared with the other groups” value ([2]; days 1, 4 and 8) was “significantly lower viability than the other two groups”, the “effect of single amino acid on cell viability” value (“effect of single amino acid” below) ([3]; 0.01 mg/mL and higher) was “positive impact on cell viability” and the “effect on cell viability in single / double crosses” value (from here on “effect … in single / double crosses”) [3] was “most positive effect on cell health”. The “effect on cell viability at the highest doses / higher concentrations” value [3] was “improve viability at the higher concentrations tested”, the “undissolved crystals in working solution” value [4] was “still had microscopic crystals that had not gone completely into solution” and the “islets found in the group” value ([5]; day 8) was “No islets could be identified; also recorded: no live islets could be found”. The “islet survival time in culture” value ([5]; no islets survived past this time) was ≤ 6 days and the “number of islets as % of the Amino Acid Formulation #1 group” value ([5]; within 24 hours of exposure) was 78%.
With N=C(N)NCCC[C@H](N)C(=O)O [arginine, L-Arginine] the “effect … in single / double crosses” value [3] was “decrease in cell viability when added to any other amino acid”, the “effect on cell viability at the highest doses / higher concentrations” value [3] was “negative effects on cell viability at the highest doses” and the “effect of single amino acid” value ([3]; starting at 1 mg/mL) was “dramatic reductions in the viability”.
With NC(=O)C[C@H](N)C(=O)O [asparagine, L-Asparagine] the “cells left in the dish that were alive” value ([3]; double cross: another 1 mg/mL of asparagine added to 1 mg/mL asparagine) was 18%, the “effect … in single / double crosses” value [3] was “dramatic reduction in beta cell viability” and the “effect on cell viability at the highest doses / higher concentrations” value [3] was “negative effects on cell viability at the highest doses”. The “effect of single amino acid” value ([3]; starting at 1 mg/mL) was “dramatic reductions in the viability”.
With N[C@@H](Cc1c[nH]cn1)C(=O)O [histidine, L-Histidine] the “effect … in single / double crosses” value [3] was “very little effect on cell viability except when paired with asparagine or arginine”, the “cells killed (fraction, words)” value ([3]; single amino acid, high doses (from 1 mg/mL)) was “approximately half” and the “effect of single amino acid” value ([3]; starting at 1 mg/mL) was “dramatic reductions in the viability”.
In the case of N[C@@H](CO)C(=O)O [serine, L-Serine], the “effect of single amino acid” value ([3]; 10 mg/mL) is reported as “slightly positive increases in viability”.
In the case of C[C@@H](O)[C@H](N)C(=O)O [threonine, L-Threonine], the “effect of single amino acid” value ([3]; 10 mg/mL) is reported as “slightly positive increases in viability”.
